Test results: PMC11277932, “Australian Marine and Terrestrial Streptomyces-Derived Surugamides, and Synthetic Analogs, and Their Ability to Inhibit Dirofilaria immitis (Heartworm) Motility” (Marine Drugs, 2024)
In brackets after ≈: the same amount, converted by molar mass. Square brackets hold non-standard residues; d marks the D form. Peptide text beside a SMILES is read from it. * marks the point of attachment. d(aIle) = CC[C@H](C)[C@@H](N)C(=O)O; hArg = N=C(N)NCCCC[C@H](N)C(=O)O; Lys(Me) = CNCCCC[C@H](N)C(=O)O; Lauroyl = CCCCCCCCCCCC(=O)*; Pyruvoyl = CC(=O)C(=O)*; Pentanoyl = CCCCC(=O)*; Propionyl = CCC(=O)*; Bz = O=C(c1ccccc1)*; For = O=C*

Experiments:
[1] = tested on: human colorectal (SW620) carcinoma cells; settings: MTT
[2] = tested on: Dirofilaria immitis microfilariae; settings: pure compounds; ~72 h
[3] = tested on: Haemonchus contortus L1–L3 larvae; settings: pure compounds; four days
[4] = tested on: human colorectal (SW620) carcinoma cells; assay: cells; settings: SW-620, read-out: Human Colorectal Carcinoma Cells (SW620) IC50
[5] = tested on: Dirofilaria immitis microfilariae; assay: microbe, parasite or virus in culture; settings: 72 h, read-out: D. immitis mf Motility EC50, ~72 h
[6] = tested on: Haemonchus contortus L1–L3 larvae; assay: microbe, parasite or virus in culture; settings: 96 h, read-out: H. contortus L1–L3 Larvae Development EC50
Erwinia amylovora = tested on: Erwinia amylovora; set-up: method as in PMID 24317473; settings: at 25 μM; cited from earlier work
Staphylococcus aureus = tested on: Staphylococcus aureus; set-up: method as in PMID 24713874; settings: cited from earlier work

SMILES	Human Colorectal Carcinoma Cells (SW620) IC50 [1]	D. immitis mf Motility EC50 [2]	H. contortus L1–L3 Larvae Development EC50 [3]	IC50 [4]	EC50 [5]	EC50 [6]	inhibition of Erwinia amylovora (Erwinia amylovora)	Staphylococcus aureus MIC (Staphylococcus aureus)
CC[C@H](C)[C@@H]1NC(=O)[C@H](CCCCNC=O)NC(=O)[C@@H]([C@@H](C)CC)NC(=O)[C@H]([C@@H](C)CC)NC(=O)[C@@H](C)NC(=O)[C@H]([C@@H](C)CC)NC(=O)[C@@H](CC(C)C)NC(=O)[C@@H](Cc2ccccc2)NC1=O [acyl-surugamide A1 (5), acyl-surugamide A1] (cyclo(I[d(aIle)]K(For)I[dF][dL]I[dA]))	>30 µg/mL	>25 µg/mL	>25 µg/mL					
CC[C@H](C)[C@@H]1NC(=O)[C@H](CCCCNC(C)=O)NC(=O)[C@@H]([C@@H](C)CC)NC(=O)[C@H]([C@@H](C)CC)NC(=O)[C@@H](C)NC(=O)[C@H]([C@@H](C)CC)NC(=O)[C@@H](CC(C)C)NC(=O)[C@@H](Cc2ccccc2)NC1=O [acyl-surugamide A2 (6), acyl-surugamide A2] (cyclo(I[d(aIle)]K(Ac)I[dF][dL]I[dA]))	>30 µg/mL	>25 µg/mL	>25 µg/mL					
CCC(=O)NCCCC[C@@H]1NC(=O)[C@@H]([C@@H](C)CC)NC(=O)[C@H]([C@@H](C)CC)NC(=O)[C@@H](C)NC(=O)[C@H]([C@@H](C)CC)NC(=O)[C@@H](CC(C)C)NC(=O)[C@@H](Cc2ccccc2)NC(=O)[C@H]([C@@H](C)CC)NC1=O [acyl-surugamide A3 (7), acyl-surugamide A3] (cyclo(I[d(aIle)]K(Propionyl)I[dF][dL]I[dA]))	> 30 µg/mL	3.3 µg/mL	>25 µg/mL					
CC[C@H](C)[C@@H]1NC(=O)[C@H](CCCCNC(=O)C(C)=O)NC(=O)[C@@H]([C@@H](C)CC)NC(=O)[C@H]([C@@H](C)CC)NC(=O)[C@@H](C)NC(=O)[C@H]([C@@H](C)CC)NC(=O)[C@@H](CC(C)C)NC(=O)[C@@H](Cc2ccccc2)NC1=O [acyl-surugamide A4 (8), acyl-surugamide A4] (cyclo(I[d(aIle)]K(Pyruvoyl)I[dF][dL]I[dA]))	>30 µg/mL	16.0 µg/mL	>25 µg/mL					
CCCCC(=O)NCCCC[C@@H]1NC(=O)[C@@H]([C@@H](C)CC)NC(=O)[C@H]([C@@H](C)CC)NC(=O)[C@@H](C)NC(=O)[C@H]([C@@H](C)CC)NC(=O)[C@@H](CC(C)C)NC(=O)[C@@H](Cc2ccccc2)NC(=O)[C@H]([C@@H](C)CC)NC1=O [acyl-surugamide AS1 (13), acyl-surugamide AS1] (cyclo(I[d(aIle)]K(Pentanoyl)I[dF][dL]I[dA]))	>30 µg/mL	21 µg/mL	>25 µg/mL					
CCCCCCCCCCCC(=O)NCCCC[C@@H]1NC(=O)[C@@H]([C@@H](C)CC)NC(=O)[C@H]([C@@H](C)CC)NC(=O)[C@@H](C)NC(=O)[C@H]([C@@H](C)CC)NC(=O)[C@@H](CC(C)C)NC(=O)[C@@H](Cc2ccccc2)NC(=O)[C@H]([C@@H](C)CC)NC1=O [acyl-surugamide AS2 (14), acyl-surugamide AS2] (cyclo(I[d(aIle)]K(Lauroyl)I[dF][dL]I[dA]))	>30 µg/mL	>25 µg/mL	>25 µg/mL					
CC[C@H](C)[C@@H]1NC(=O)[C@H](CCCCNC(=O)c2ccccc2)NC(=O)[C@@H]([C@@H](C)CC)NC(=O)[C@H]([C@@H](C)CC)NC(=O)[C@@H](C)NC(=O)[C@H]([C@@H](C)CC)NC(=O)[C@@H](CC(C)C)NC(=O)[C@@H](Cc2ccccc2)NC1=O [acyl-surugamide AS3 (15), acyl-surugamide AS3] (cyclo(I[d(aIle)]K(Bz)I[dF][dL]I[dA]))	>30 µg/mL	3.4 µg/mL	>25 µg/mL					
CCCCCC[C@H]1C(=O)O[C@H](C)[C@H](NC(=O)c2cccc(NC=O)c2O)C(=O)O[C@@H](C)[C@@H]1OC(=O)C(C)C [antimycin A2a (2), antimycin A2a]				0.08 µg/mL (≈ 0.15 µM)	0.0013 to 0.0021 µg/mL (≈ 0.00243 to 0.00393 µM)	1.8 µg/mL (≈ 3.37 µM)		
CCCC[C@H]1C(=O)O[C@H](C)[C@H](NC(=O)c2cccc(NC=O)c2O)C(=O)O[C@@H](C)[C@@H]1OC(=O)C(C)C [antimycin A4a (1), antimycin A4a]				0.061 µg/mL (≈ 0.12 µM)	0.0013 to 0.0021 µg/mL (≈ 0.00257 to 0.00415 µM)	3.5 µg/mL (≈ 6.91 µM)		
CC[C@H](C)[C@@H]1NC(=O)[C@H](CCCCN)NC(=O)[C@@H]([C@@H](C)CC)NC(=O)[C@H]([C@@H](C)CC)NC(=O)[C@@H](C)NC(=O)[C@H]([C@@H](C)CC)NC(=O)[C@@H](CC(C)C)NC(=O)[C@@H](Cc2ccccc2)NC1=O [surugamide A (3), surugamide A] (cyclo(I[d(aIle)]KI[dF][dL]I[dA]))	>30 µg/mL	>25 µg/mL	>25 µg/mL				40%	10 µM
CC[C@H](C)[C@@H]1NC(=O)[C@H](CCCCNC)NC(=O)[C@@H]([C@@H](C)CC)NC(=O)[C@H]([C@@H](C)CC)NC(=O)[C@@H](C)NC(=O)[C@H]([C@@H](C)CC)NC(=O)[C@@H](CC(C)C)NC(=O)[C@@H](Cc2ccccc2)NC1=O [surugamide K (4), surugamide K] (cyclo(I[d(aIle)][Lys(Me)]I[dF][dL]I[dA]))	>30 µg/mL	>25 µg/mL	>25 µg/mL					
CC[C@@H](C)[C@H]1NC(=O)[C@H]([C@@H](C)CC)NC(=O)[C@@H](C)NC(=O)[C@H]([C@@H](C)CC)NC(=O)[C@@H](CC(C)C)NC(=O)[C@@H](Cc2ccccc2)NC(=O)[C@H]([C@@H](C)CC)NC(=O)[C@H](CCCCN)NC1=O [surugamide S1 (9), cyclo[-L-Ile^1-D-Ile^2-L-Lys^3-L-Ile^4-D-Phe^5-D-Leu^6-L-Ile^7-D-Ala^8-]] (cyclo(I[dI]KI[dF][dL]I[dA]))		>25 µg/mL	>25 µg/mL					
CC[C@H](C)[C@@H]1NC(=O)[C@H](CCCNC(=N)N)NC(=O)[C@@H]([C@@H](C)CC)NC(=O)[C@H]([C@@H](C)CC)NC(=O)[C@@H](C)NC(=O)[C@H]([C@@H](C)CC)NC(=O)[C@@H](CC(C)C)NC(=O)[C@@H](Cc2ccccc2)NC1=O [surugamide S2 (10), surugamide S2] (cyclo(I[d(aIle)]RI[dF][dL]I[dA]))		> 25 µg/mL	>25 µg/mL					
CC[C@H](C)[C@@H]1NC(=O)[C@H](C)NC(=O)[C@@H]([C@@H](C)CC)NC(=O)[C@H]([C@@H](C)CC)NC(=O)[C@@H](C)NC(=O)[C@H]([C@@H](C)CC)NC(=O)[C@@H](CC(C)C)NC(=O)[C@@H](Cc2ccccc2)NC1=O [surugamide S3 (11), surugamide S3] (cyclo(I[d(aIle)]AI[dF][dL]I[dA]))		> 25 µg/mL	>25 µg/mL					
CC[C@H](C)[C@@H]1NC(=O)[C@H](CCCCNC(=N)N)NC(=O)[C@@H]([C@@H](C)CC)NC(=O)[C@H]([C@@H](C)CC)NC(=O)[C@@H](C)NC(=O)[C@H]([C@@H](C)CC)NC(=O)[C@@H](CC(C)C)NC(=O)[C@@H](Cc2ccccc2)NC1=O [surugamide S4 (12), surugamide S4] (cyclo(I[d(aIle)][hArg]I[dF][dL]I[dA]))		>25 µg/mL	>25 µg/mL					
